According to US10610582B2, “Compound and method for vaccination and immunisation” (PCI Biotech AS, priority 2013, dated 2020):
Where two headings read alike, the source gives them in different places.

Legend:
IFN-γ = type: in vivo, C57BL/6 mice; details: day 14 spleen, 10 μg OVA + labelled TLR ligand + PCI, compared with other groups
IL-2 = type: in vivo, C57BL/6 mice; details: day 14 spleen, 10 μg OVA + labelled TLR ligand + PCI, compared with other groups
OVA-specific CD8 T-cells = test: Vaccination with OVA, Poly(IC) or CpG ODN2395 in mice given OT-1 cells: OVA-specific CD8 T-cells in blood by flow cytometry (Example 3); type: in vivo, C57BL/6 mice; details: day 7
Description: One day prior to the immunisation, spleens and lymph nodes were isolated from female OT-1 mice, and erythrocytes were removed by lysis (RBC Lysing Buffer Hybri-Max from Sigma-Aldrich) from the homogenised cell suspensions. […] One day or 8 hours later, mice were bled by tail bleeding, and the blood was collected in heparin-containing tubes for analysis of the baseline frequency of OVA-specific CD8 T cells.
The illumination time was 6 minutes.
At the end of the experiment (day 14), the mice were euthanized and the splenocytes analysed ex vivo.

[1] = system: antigen specific CD8 T-cells; type: in vivo, C57BL/6 mice; details: particularly after 2nd immunisation; 200 μg OVA + 50 μg poly(IC) + PCI (150 μg TPCS2a + light), group 5
Excerpt: The following experimental groups were included:

[2] = system: antigen-specific CD8+ T-cells (TRP-2 pentamer); test: PCI with melanoma antigen peptides (TRP-2 and gp100) and poly(IC) in normal mice, TRP-2 pentamer flow cytometry (Example 6); type: in vivo, C57BL/6 mice; details: after 2nd immunisation
[3] = system: antigen specific CD8 T-cells; type: in vivo, C57BL/6 mice; details: 3rd immunisation (day 51) with poly(IC)+PCI after two immunisations with poly(IC) only, group 2
Description: The generation of immunological memory was tested by a 3rd immunisation at day 51 with a poly(IC)+PCI treatment. […]

[4] = system: antigen specific CD8 T-cells; type: in vivo, C57BL/6 mice; details: 200 μg OVA + 10 μg poly(IC) injected 2 h before illumination, TPCS2a 150 μg 18 h before illumination
Description: In all groups TPCS2a was injected 18 h before illumination, while OVA antigen and poly(IC) was either injected 18 h before illumination in a mixture with TPCS2a, or 2 h before illumination as a separate injection. Illumination was for 6 min with the LumiSource illumination device. […]

[5] = system: antigen specific CD8 T-cells (HPV pentamer); test: PCI with HPV peptide antigen and poly(IC) in normal mice, HPV pentamer flow cytometry (Example 12); details: after three immunisations; 50 μg HPV peptide + 10 μg poly(IC) twice, 3rd with poly(IC) + PCI (100 μg TPCS2a + light), group 6
[6] = system: antigen specific CD8 T-cells (HPV pentamer); test: PCI with HPV long peptide antigen and poly(IC) in normal mice, HPV pentamer flow cytometry (Example 15)
[7] = system: antigen specific CD8 T-cells (HPV pentamer); test: PCI with HPV short peptide antigen and poly(IC) in normal mice, HPV pentamer flow cytometry (Example 16)
[8] = system: antigen specific CD8 T-cells
[9] = 10 μg OVA with the labelled agent alone (50 μg ODN2395 CpG or 50 μg Poly(IC) without PCI; PCI = 150 μg TPCS2a + light without adjuvant)
[10] = TRP-2 + gp100 peptides (50 μg each) with the labelled agent alone (10 μg poly(IC), or PCI = 100 μg TPCS2a + light), vs untreated
[11] = HPV short peptide with only the labelled agent (only p(IC) or only PCI) for both immunisations

Compound | IFN-γ production in total spleen cells (ELISA) (IFN-γ) | IL-2 production in total spleen cells (ELISA) (IL-2) | % antigen-specific, CD44+ cells of the total CD8+ cells in blood (OVA-specific CD8 T-cells; 10 μg OVA + 50 μg labelled adjuvant combined with PCI (150 μg TPCS2a + light)) | % antigen-specific, CD44+ cells of the total CD8+ cells in blood (OVA-specific CD8 T-cells; [9]) | % antigen-specific, CD44+ cells of the total CD8+ cells [1] | % antigen-specific, CD44+ cells of the total CD8+ cells (TRP-2 pentamer) [2, 10] | % antigen-specific, CD44+ cells of the total CD8+ cells (TRP-2 pentamer) ([2]; TRP-2 + gp100 peptides + 10 μg poly(IC) + PCI (100 μg TPCS2a + light), group 4) | % antigen-specific, CD44+ cells of the total CD8+ cells [3] | % antigen-specific, CD44+ cells of the total CD8+ cells [4] | % antigen-specific, CD44+ cells of the total CD8+ cells (HPV pentamer) [5] | % antigen-specific, CD44+ cells of the total CD8+ cells (HPV pentamer) ([6]; HPV long peptide + 10 μg p(IC) twice, without PCI, group 2) | % antigen-specific, CD44+ cells of the total CD8+ cells (HPV pentamer) ([6]; HPV long peptide, one immunisation with PCI+p(IC), one with only PCI, groups 4 and 5) | % antigen-specific, CD44+ cells of the total CD8+ cells (HPV pentamer) ([6]; after two immunisations, both with 50 μg HPV long peptide + 10 μg p(IC) + PCI (100 μg TPCS2a + light), group 3) | % antigen-specific, CD44+ cells of the total CD8+ cells (HPV pentamer) [7, 11] | % antigen-specific, CD44+ cells of the total CD8+ cells (HPV pentamer) ([7]; HPV short peptide, 1st immunisation p(IC)+PCI, 2nd immunisation PCI only, group 6) | % antigen-specific, CD44+ cells of the total CD8+ cells (HPV pentamer) ([7]; after two immunisations, both with 50 μg HPV short peptide + 10 μg p(IC) + PCI (100 μg TPCS2a + light), group 5) | % antigen-specific, CD44+ cells of the total CD8+ cells ([8]; 10 μg OVA + poly(IC) (50 μg 1st, 10 μg 2nd) + red light PCI, group 6) | % antigen-specific, CD44+ cells of the total CD8+ cells ([8]; 100 μg OVA + poly(IC) (50 μg 1st, 10 μg 2nd) + red light PCI, group 7, vs antigen alone) | % antigen-specific, CD44+ cells of the total CD8+ cells ([8]; 10 μg OVA alone or with red light PCI (150 μg TPCS2a, 652 nm) only, after 1st and 2nd immunisation)
CCOCc1nc2c(N)nc3ccccc3c2n1CC(C)(C)O [R848, 1-[4-amino-2-(ethoxymethyl)imidazo[4,5-c]quinolin-1-yl]-2-methylpropan-2-ol] | highest | highest | – | – | – | – | – | – | – | – | – | – | – | – | – | – | – | – | –
Polyinosine-polycytidylic acid [Poly(IC)] | – | – | clear synergistic effect | no significant | substantially better immunisation than only poly(IC) (group 4) or only PCI (group 3) | no significant increase in antigen-specific cells | clear synergistic effect leading to a significant increase in the number of antigen-specific CD8+ T-cells | did not seem to boost immunisation to any significant degree | immune response is enhance | HPV-specific immune response was induced | no effect | weaker, but still significant immune response | strong HPV-specific immune response | no immune response | significant immune response | significant immune response | required to achieve an immune response | substantially better | –
tetraphenyl chlorin disulfonate [PCI] | – | – | – | substantially more potent than either of these adjuvants | – | no significant increase in antigen-specific cells | – | – | – | – | – | – | – | no immune response | – | – | – | – | no immunisation effect
